Molecular target: T1, aldose reductase (Bos taurus, UniProt P16116)
T1 construct: partially purified aldose reductase enzyme obtained from calf lens; from tissue; host or cells: calf lens
Assay: inhibition of aldose reductase enzyme activity (procedure of U.S. Pat. No. 3,821,383, based on Hayman et al.)
Format: biochemical
Settings: partially purified aldose reductase from calf lens, / = results of duplicate tests; for inhibition at 100 µM: 10^-4 M
From the text: Pat. No. 3,821,383 and based on the procedure of Hayman et. al., Journal of Biological Chemistry, 240, 877 (1965). The substrate employed was partially purified aldose reductase enzyme obtained from calf lens. The results obtained with each compound at a concentration of 10^-4 M are expressed as percent inhibition of enzyme activity.

SMILES	inhibition at 100 µM [%]	% Inhibition at 10^-4 M (aldose reductase enzyme activity) [%]
O=C(O)C1CCOc2c(Cl)cc(-c3ccccc3)cc21 (stereo not drawn) [Example 2, 6-phenyl-8-chloro-3,4-dihydro-2H-1-benzopyran-4-carboxylic acid]	74	67
O=C(O)C1CCSc2cc(Cl)c(Cl)cc21 (stereo not drawn) [Example 4, 6,7-dichloro-3,4-dihydro-2H-1-benzothiopyran-4-carboxylic acid]	92	76
O=C(O)C1CCOc2ccc(F)cc21 (stereo not drawn) [Example 10, 6-fluoro-3,4-dihydro-2H-1-benzopyran-4-carboxylic acid]	71	–
O=C(O)C1CCSc2ccc(Cl)cc21 (stereo not drawn) [Example 16, 6-chloro-3,4-dihydro-2H-1-benzothiopyran-4-carboxylic acid]	70	–
O=C(O)C1CCOc2c1cc(Cl)c1ccccc21 (stereo not drawn) [Example 14, 6-chloro-3,4-dihydro-2H-naphtho[1,2-b]pyran-4-carboxylic acid]	88	90
O=C(O)C1CCOc2ccc(Cl)cc21 (stereo not drawn) [Example 12, 6-chloro-3,4-dihydro-2H-1-benzopyran-4-carboxylic acid]	85	81

Next, values leading:

inhibition at 100 µM [%]	% Inhibition at 10^-4 M (aldose reductase enzyme activity) [%]	SMILES
87	89	Cc1cc(Cl)cc2c1OCCC2C(=O)O (stereo not drawn) [Example 6, 6-chloro-8-methyl-3,4-dihydro-2H-1-benzopyran-4-carboxylic acid]
82	89	O=C(O)C1CCOc2c(Cl)cc(Cl)cc21 (stereo not drawn) [Example 8, 6,8-dichloro-3,4-dihydro-2H-1-benzopyran-4-carboxylic acid]
69	–	O=C(O)CC1CCOc2ccc(Cl)cc21 (stereo not drawn) [Example 18, 6-chloro-3,4-dihydro-2H-1-benzopyran-4-acetic acid]

Source: patent US4210663A, “Halogen substituted benzopyran- and benzothiopyran-4-carboxylic acids” (Pfizer Inc., priority 1978, dated 1980)
